For data set [1], the target named is T1, dopamine transporter (DAT) (Homo sapiens, UniProt Q01959).
T1 construct: expressed in transfected cells; host or cells: HEK293 (HEK-DAT)
Put plainly: Substrate uptake inhibition in HEK-DAT cells. It counts as cell-based. Particulars: for inhibition of DAT and selectivity against SERT and NET: verbal summary of EC50 values. Here is the method:
(§1) The human isoforms of DAT, SERT and NET were expressed in HEK293 (HEK-DAT, HEK-SERT and HEK-NET) cells. DAT inhibitors-mediated monoamine transporter effects on substrate uptake were analyzed according to procedure described by Sitte et al. In brief, cells were grown in poly-d-lysine coated 96-well plates, incubated with compounds diluted in Krebs-Ringer-HEPES buffer, substrates were subsequently added, cells were lysed with 1% SDS (sodium dodecyl sulphate) and released radioactivity was measure by a liquid scintillation counter (23).
(§2) EC50-values for the dopamine transporter (DAT), the norepinephrine transporter (NET) and the serotonin transporter (SERT) were obtained: […]

The target of data set [2] is T2, serotonin transporter (SERT) (Homo sapiens, UniProt P31645).
T2 construct: expressed in transfected cells; host or cells: HEK293 (HEK-SERT)
T2 sequence (P31645 whole entry): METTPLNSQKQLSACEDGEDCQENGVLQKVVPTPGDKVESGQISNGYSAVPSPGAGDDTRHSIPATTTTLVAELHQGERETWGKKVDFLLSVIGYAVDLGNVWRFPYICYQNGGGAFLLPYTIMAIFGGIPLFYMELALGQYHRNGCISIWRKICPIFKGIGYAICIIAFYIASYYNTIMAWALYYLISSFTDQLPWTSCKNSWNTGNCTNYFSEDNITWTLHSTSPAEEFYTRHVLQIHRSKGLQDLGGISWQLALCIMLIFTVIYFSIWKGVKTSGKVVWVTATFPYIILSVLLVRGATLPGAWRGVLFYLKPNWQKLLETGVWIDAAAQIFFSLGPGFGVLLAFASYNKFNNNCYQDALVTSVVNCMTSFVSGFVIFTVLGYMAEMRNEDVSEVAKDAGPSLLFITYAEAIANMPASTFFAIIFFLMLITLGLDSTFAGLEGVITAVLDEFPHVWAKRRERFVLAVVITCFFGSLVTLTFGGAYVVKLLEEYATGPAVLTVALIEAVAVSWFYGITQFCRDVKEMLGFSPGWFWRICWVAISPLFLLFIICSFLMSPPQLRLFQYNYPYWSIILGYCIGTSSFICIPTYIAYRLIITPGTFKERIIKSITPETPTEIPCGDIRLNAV
Nature of the data set: Substrate uptake inhibition in HEK-SERT cells. Format: cell-based. The following applies: human SERT expressed in HEK293, substrate uptake. The protocol:
as §1, §2

In data set [3] the target is T3, norepinephrine transporter (NET) (Homo sapiens, UniProt P23975).
T3 construct: expressed in transfected cells; host or cells: HEK293 (HEK-NET)
T3 sequence (P23975 whole entry): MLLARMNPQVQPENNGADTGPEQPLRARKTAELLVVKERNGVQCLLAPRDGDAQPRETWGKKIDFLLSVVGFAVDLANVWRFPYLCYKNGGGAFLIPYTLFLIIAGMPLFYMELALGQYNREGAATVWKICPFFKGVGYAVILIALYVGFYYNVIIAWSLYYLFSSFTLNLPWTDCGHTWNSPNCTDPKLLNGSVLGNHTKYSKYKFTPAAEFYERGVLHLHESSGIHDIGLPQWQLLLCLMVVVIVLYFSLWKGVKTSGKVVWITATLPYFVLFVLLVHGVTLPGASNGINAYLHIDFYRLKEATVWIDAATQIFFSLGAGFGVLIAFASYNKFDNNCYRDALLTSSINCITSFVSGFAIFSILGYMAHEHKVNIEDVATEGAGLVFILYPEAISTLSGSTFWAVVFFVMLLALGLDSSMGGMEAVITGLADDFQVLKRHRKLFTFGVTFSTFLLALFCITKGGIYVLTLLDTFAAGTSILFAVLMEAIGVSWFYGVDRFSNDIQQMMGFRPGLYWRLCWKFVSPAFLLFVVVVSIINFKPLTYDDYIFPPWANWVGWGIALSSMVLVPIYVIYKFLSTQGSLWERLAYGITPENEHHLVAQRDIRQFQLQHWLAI
Nature of the data set: Substrate uptake inhibition in HEK-NET cells. Particulars: human NET expressed in HEK293, substrate uptake. It counts as cell-based. Here is the method:
as §1, §2

Another data set has as its system Male Sprague Dawley rats. Put plainly: 12 arm radial arm maze (RAM), working memory errors. Format: in vivo, rat. The following applies: versus DMSO-injected counterparts. The text has this:
One such animal model is the radial arm maze using rats and is given in detail in Timofeva O. et al., Brain Res. 1308 (2010) 147-152: Wenk G. et al.; The Journal of Neuroscience (2004) 8.5A.1-8.5A.12; Akoto M. et al.; The Journal of Neuroscience (2000)20 (189: 7116-7121: Levin E D et al.; Behavioral Brain Res. 208 (2010) 319-327. Li-Bo Z. et al.; Neuropharmacology 37, 1998) 323-330. Roegge, C S. et al.; Toxicological Sciences 57, 121-30 (2000).
Male Sprague Dawley rats were used for the studies aged between 12-14 weeks. Twelve rats per group were used for this study. All rats were obtained from Core Unit of Biomedical Research, Division of Laboratory Animal Science and Genetics, Medical University of Vienna and maintained in cages made of makrolon and filled with autoclaved woodchips and water in bottles was available ad libitum. The room was illuminated with artificial light at an intensity of about 200 lx in 2 m from 5 am to 7 pm. Radial arm maze (RAM) training was performed between 8:00 h and 13:00 h. […]
Before starting the training, rats were given two habituation sessions in which food was placed all over the maze and rats were allowed to explore the maze and consume the food for 5 minutes. […] An arm was baited only once and a repeated entry into a baited arm was counted as a working memory error, whereas any entry into an un-baited arm was recorded as a reference memory error. […]

The structures appear in SMILES notation.

T1 sequence (Q01959 whole entry): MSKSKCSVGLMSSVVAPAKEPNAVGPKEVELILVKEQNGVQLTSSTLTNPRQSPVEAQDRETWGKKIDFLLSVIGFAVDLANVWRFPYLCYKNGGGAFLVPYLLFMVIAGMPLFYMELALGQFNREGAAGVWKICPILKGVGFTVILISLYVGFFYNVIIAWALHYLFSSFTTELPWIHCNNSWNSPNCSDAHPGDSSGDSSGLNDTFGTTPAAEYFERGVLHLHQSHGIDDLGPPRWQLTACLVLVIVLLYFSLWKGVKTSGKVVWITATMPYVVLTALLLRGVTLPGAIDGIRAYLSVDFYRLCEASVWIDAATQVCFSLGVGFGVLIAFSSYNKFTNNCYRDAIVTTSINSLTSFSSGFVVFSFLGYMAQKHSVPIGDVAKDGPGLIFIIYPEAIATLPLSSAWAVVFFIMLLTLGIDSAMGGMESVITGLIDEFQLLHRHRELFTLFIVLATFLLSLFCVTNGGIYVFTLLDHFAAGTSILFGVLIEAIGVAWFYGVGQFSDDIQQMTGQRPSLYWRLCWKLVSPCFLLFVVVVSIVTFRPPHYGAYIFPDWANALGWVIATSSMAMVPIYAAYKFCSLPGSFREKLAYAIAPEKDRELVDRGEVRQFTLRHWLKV

As a reminder, the melting point is the temperature of the solid-liquid transition. `Cc1csc(C[S+]([O-])C(c2ccccc2)c2ccccc2)n1` (stereo not drawn): the melting point lay within 104 to 107 °C.

One may read the EC50 as the midpoint of the concentration-response curve. A lower EC50 goes with an effect from little substance. In the case of `[O-][S+](Cc1cscn1)C(c1ccccc1)c1ccccc1` (stereo not drawn) [4-(diphenylmethanesulfinylmethyl)-1,3-thiazole], the 50% effective concentration (EC50) in data set [1] amounted to 7.3 µM; in data set [2], 456 µM; in data set [3], 547 µM. Besides, the “inhibition of DAT and selectivity against SERT and NET” value in data set [1] is “excellent inhibition and selectivity against SERT and NET”.

Take `[O-][S+](Cc1csc(C2CC2)n1)C(c1ccccc1)c1ccccc1` (stereo not drawn) [4-(diphenylmethanesulfinylmethyl)-2-cyclopropyl-1,3-thiazole]: the EC50 in data set [1] turned out to be 4.1 µM; in data set [2], 436 µM; in data set [3], 774 µM. In addition, the “inhibition of DAT and selectivity against SERT and NET” value in data set [1] is “excellent inhibition and selectivity against SERT and NET”.

For the molecule `[O-][S+](Cc1nccs1)C(c1ccccc1)c1ccccc1` (stereo not drawn) [C1, 2-(diphenylmethanesulfinylmethyl}-1,3-thiazole], the melting point lay within 119 to 122 °C. Also, the “performance in RAM training from day eight (working memory errors)” value with Male Sprague Dawley rats (day eight to ten, p<0.05) was “performed better”. Also, the “performance in RAM training up to day seven” value with Male Sprague Dawley rats (up to day seven) was “comparable level”.

The values above are taken from patent publication US10221147B2, “Heterocyclic compounds with working memory enhancing activity” (Red Bull GmbH, priority 2014, dated 2019).
